Results reported in the NIST ThermoML archive (doi:10.1016/j.jct.2007.07.005).
± gives the expanded uncertainty stated by the source.

Assay: xn = mol fraction of the nth substance listed
Details: Fluid (supercritical or subcritical phases), vibrating tube

CCCCCO [pentan-1-ol] + O=C=O
Details	mass density [kg/m3]
323.05 K, 13025 kPa, x2 = 0.0816	806.04 ± 0.44
323.05 K, 13028 kPa, x2 = 0.8067	814.77 ± 0.49
323.05 K, 14019 kPa, x2 = 0.3624	822.92 ± 0.44
323.05 K, 14021 kPa, x2 = 0.0816	806.82 ± 0.44
323.05 K, 14024 kPa, x2 = 0.8067	820.63 ± 0.48
323.05 K, 14024 kPa, x2 = 0.9757	722.69 ± 0.76
323.05 K, 14031 kPa, x2 = 0.4651	829.31 ± 0.45
323.05 K, 14965 kPa, x2 = 0.9757	740.5 ± 0.69
323.05 K, 14990 kPa, x2 = 0.4651	830.68 ± 0.45
323.05 K, 15001 kPa, x2 = 0.8067	825.93 ± 0.48
323.05 K, 15006 kPa, x2 = 0.3624	823.89 ± 0.45
323.05 K, 15017 kPa, x2 = 0.0816	807.57 ± 0.44
323.05 K, 16002 kPa, x2 = 0.3624	824.89 ± 0.45
323.05 K, 16018 kPa, x2 = 0.9757	757.4 ± 0.65
323.05 K, 16021 kPa, x2 = 0.0816	808.32 ± 0.45
323.05 K, 16027 kPa, x2 = 0.4651	832.14 ± 0.45
323.05 K, 16066 kPa, x2 = 0.8067	831.24 ± 0.48
323.05 K, 17005 kPa, x2 = 0.0816	809.07 ± 0.45
323.05 K, 17018 kPa, x2 = 0.4651	833.51 ± 0.45
323.05 K, 17021 kPa, x2 = 0.3624	825.87 ± 0.45
323.05 K, 17021 kPa, x2 = 0.8067	835.7 ± 0.48
323.05 K, 17052 kPa, x2 = 0.9757	771.8 ± 0.62
323.05 K, 17994 kPa, x2 = 0.4651	834.85 ± 0.45
323.05 K, 18001 kPa, x2 = 0.3624	826.81 ± 0.45
323.05 K, 18002 kPa, x2 = 0.8067	840 ± 0.47
323.05 K, 18028 kPa, x2 = 0.9757	783.78 ± 0.59
323.05 K, 18049 kPa, x2 = 0.0816	809.83 ± 0.45
323.05 K, 18975 kPa, x2 = 0.0816	810.52 ± 0.45
323.05 K, 19012 kPa, x2 = 0.8067	844.21 ± 0.47
323.05 K, 19034 kPa, x2 = 0.3624	827.81 ± 0.45
323.05 K, 19035 kPa, x2 = 0.9757	794.96 ± 0.58
323.05 K, 19057 kPa, x2 = 0.4651	836.29 ± 0.45
323.05 K, 19998 kPa, x2 = 0.3624	828.72 ± 0.45
323.05 K, 20002 kPa, x2 = 0.9757	804.8 ± 0.56
323.05 K, 20009 kPa, x2 = 0.4651	837.54 ± 0.45
323.05 K, 20044 kPa, x2 = 0.8067	848.26 ± 0.47
323.05 K, 20047 kPa, x2 = 0.0816	811.3 ± 0.45
323.05 K, 20997 kPa, x2 = 0.0816	811.98 ± 0.45
323.05 K, 21033 kPa, x2 = 0.3624	829.67 ± 0.45
323.05 K, 21034 kPa, x2 = 0.4651	838.89 ± 0.45
323.05 K, 21046 kPa, x2 = 0.8067	851.97 ± 0.47
323.05 K, 21049 kPa, x2 = 0.9757	814.6 ± 0.55
323.05 K, 21991 kPa, x2 = 0.0816	812.7 ± 0.45
323.05 K, 22013 kPa, x2 = 0.3624	830.58 ± 0.45
323.05 K, 22017 kPa, x2 = 0.4651	840.19 ± 0.45
323.05 K, 22017 kPa, x2 = 0.8067	855.5 ± 0.47
323.05 K, 22020 kPa, x2 = 0.9757	823 ± 0.54
323.05 K, 22767 kPa, x2 = 0.9757	829.12 ± 0.54
323.05 K, 22970 kPa, x2 = 0.8067	858.77 ± 0.47
323.05 K, 22997 kPa, x2 = 0.3624	831.49 ± 0.45
323.05 K, 23022 kPa, x2 = 0.4651	841.47 ± 0.45
323.05 K, 23054 kPa, x2 = 0.0816	813.46 ± 0.45
323.05 K, 23901 kPa, x2 = 0.4651	842.61 ± 0.45
323.05 K, 23987 kPa, x2 = 0.0816	814.12 ± 0.45
323.05 K, 24062 kPa, x2 = 0.3624	832.47 ± 0.45
323.05 K, 24707 kPa, x2 = 0.3624	833.04 ± 0.45
323.05 K, 25014 kPa, x2 = 0.0816	814.87 ± 0.45
323.06 K, 11010 kPa, x2 = 0.8573	775.4 ± 0.58
323.06 K, 11028 kPa, x2 = 0.9216	732.55 ± 1
323.06 K, 12011 kPa, x2 = 0.9216	751.44 ± 0.68
323.06 K, 12019 kPa, x2 = 0.8573	787.14 ± 0.54
323.06 K, 13011 kPa, x2 = 0.8573	796.54 ± 0.52
323.06 K, 13032 kPa, x2 = 0.9216	766.64 ± 0.61
323.06 K, 14000 kPa, x2 = 0.8573	804.66 ± 0.51
323.06 K, 14011 kPa, x2 = 0.9216	778.82 ± 0.58
323.06 K, 15019 kPa, x2 = 0.8573	812.19 ± 0.5
323.06 K, 15028 kPa, x2 = 0.9216	789.81 ± 0.56
323.06 K, 15995 kPa, x2 = 0.9216	799.06 ± 0.54
323.06 K, 16044 kPa, x2 = 0.8573	819.03 ± 0.49
323.06 K, 17005 kPa, x2 = 0.8573	824.92 ± 0.49
323.06 K, 17047 kPa, x2 = 0.9216	808.18 ± 0.53
323.06 K, 18002 kPa, x2 = 0.9216	815.71 ± 0.52
323.06 K, 18049 kPa, x2 = 0.8573	830.83 ± 0.49
323.06 K, 19010 kPa, x2 = 0.8573	835.97 ± 0.48
323.06 K, 19033 kPa, x2 = 0.9216	823.28 ± 0.51
323.06 K, 19996 kPa, x2 = 0.9216	829.83 ± 0.51
323.06 K, 20006 kPa, x2 = 0.8573	840.95 ± 0.48
323.06 K, 20987 kPa, x2 = 0.8573	845.64 ± 0.48
323.06 K, 21053 kPa, x2 = 0.9216	836.6 ± 0.5
323.06 K, 21758 kPa, x2 = 0.9216	840.85 ± 0.49
323.06 K, 22019 kPa, x2 = 0.8573	850.27 ± 0.48
323.06 K, 23021 kPa, x2 = 0.8573	854.64 ± 0.48
323.06 K, 24075 kPa, x2 = 0.8573	858.97 ± 0.48
323.08 K, 11058 kPa, x2 = 0.7274	819.26 ± 0.49
323.08 K, 12031 kPa, x2 = 0.7274	823.11 ± 0.46
323.08 K, 13034 kPa, x2 = 0.7274	826.85 ± 0.46
323.08 K, 14040 kPa, x2 = 0.7274	830.38 ± 0.46
323.08 K, 15010 kPa, x2 = 0.7274	833.59 ± 0.46
323.08 K, 16026 kPa, x2 = 0.7274	836.83 ± 0.46
323.08 K, 17015 kPa, x2 = 0.7274	839.83 ± 0.46
323.08 K, 17987 kPa, x2 = 0.7274	842.68 ± 0.46
323.08 K, 19054 kPa, x2 = 0.7274	845.68 ± 0.46
323.08 K, 19981 kPa, x2 = 0.7274	848.2 ± 0.46
323.08 K, 21008 kPa, x2 = 0.7274	850.93 ± 0.46
323.08 K, 22014 kPa, x2 = 0.7274	853.5 ± 0.46
323.08 K, 23019 kPa, x2 = 0.7274	855.98 ± 0.46
323.08 K, 23836 kPa, x2 = 0.7274	857.96 ± 0.46
323.11 K, 6015 kPa, x2 = 0.1347	801.54 ± 0.44
323.11 K, 7002 kPa, x2 = 0.1347	802.41 ± 0.44
323.11 K, 8020 kPa, x2 = 0.1347	803.27 ± 0.44
323.11 K, 9002 kPa, x2 = 0.1347	804.12 ± 0.44
323.11 K, 9115 kPa, x2 = 0.6054	824.57 ± 0.45
323.11 K, 10017 kPa, x2 = 0.1347	804.97 ± 0.44
323.11 K, 10057 kPa, x2 = 0.6054	826.64 ± 0.46
323.11 K, 11055 kPa, x2 = 0.1347	805.83 ± 0.44
323.11 K, 11062 kPa, x2 = 0.6054	828.82 ± 0.45
323.11 K, 12029 kPa, x2 = 0.1347	806.64 ± 0.44
323.11 K, 12049 kPa, x2 = 0.6054	830.92 ± 0.45
323.11 K, 13031 kPa, x2 = 0.1347	807.47 ± 0.44
323.11 K, 13068 kPa, x2 = 0.6054	833.05 ± 0.45
323.11 K, 14038 kPa, x2 = 0.1347	808.26 ± 0.44
323.11 K, 14062 kPa, x2 = 0.6054	835.02 ± 0.45
323.11 K, 15022 kPa, x2 = 0.1347	809.05 ± 0.44
323.11 K, 15036 kPa, x2 = 0.6054	836.96 ± 0.45
323.11 K, 16015 kPa, x2 = 0.1347	809.84 ± 0.45
323.11 K, 16032 kPa, x2 = 0.6054	838.86 ± 0.45
323.11 K, 17022 kPa, x2 = 0.1347	810.64 ± 0.45
323.11 K, 17053 kPa, x2 = 0.6054	840.77 ± 0.45
323.11 K, 18041 kPa, x2 = 0.1347	811.39 ± 0.45
323.11 K, 18069 kPa, x2 = 0.6054	842.62 ± 0.45
323.11 K, 19010 kPa, x2 = 0.1347	812.15 ± 0.45
323.11 K, 19041 kPa, x2 = 0.6054	844.36 ± 0.45
323.11 K, 20025 kPa, x2 = 0.1347	812.91 ± 0.45
323.11 K, 20032 kPa, x2 = 0.6054	846.09 ± 0.45
